The values that follow come from ChEMBL document CHEMBL3739370, “Synthesis and evaluation of amide, sulfonamide and urea benzisoxazole derivatives as potential atypical antipsychotics” (Medchemcomm, 2015).

The subject of test [1] is Mus musculus. The experiment in a line: Antipsychotic activity in po dosed mouse assessed as reversal of MK-801-induced hyperactivity. The format is functional.
Test [2] deals with 5-hydroxytryptamine receptor 2A (Rattus norvegicus, UniProt P14842). The experiment in a line: Displacement of [3H]ketanserin from 5HT2A receptor in rat brain cortex. The class given is tissue-based. A general note: Displacement assays read how much labelled ligand stays bound in the presence of the test substance.
Test [3] concerns the target Voltage-gated inwardly rectifying potassium channel KCNH2 (Homo sapiens, UniProt Q12809). The experiment in a line: Inhibition of human ERG.
Test [4] has as its system Mus musculus. The experiment in a line: Antipsychotic activity in po dosed mouse assessed as reversal of DOI-induced head twitch activity. The format is functional.
Test [5] addresses T1, 5-hydroxytryptamine receptor 2C (Rattus norvegicus, UniProt P08909).
T1 sequence (P08909 whole entry): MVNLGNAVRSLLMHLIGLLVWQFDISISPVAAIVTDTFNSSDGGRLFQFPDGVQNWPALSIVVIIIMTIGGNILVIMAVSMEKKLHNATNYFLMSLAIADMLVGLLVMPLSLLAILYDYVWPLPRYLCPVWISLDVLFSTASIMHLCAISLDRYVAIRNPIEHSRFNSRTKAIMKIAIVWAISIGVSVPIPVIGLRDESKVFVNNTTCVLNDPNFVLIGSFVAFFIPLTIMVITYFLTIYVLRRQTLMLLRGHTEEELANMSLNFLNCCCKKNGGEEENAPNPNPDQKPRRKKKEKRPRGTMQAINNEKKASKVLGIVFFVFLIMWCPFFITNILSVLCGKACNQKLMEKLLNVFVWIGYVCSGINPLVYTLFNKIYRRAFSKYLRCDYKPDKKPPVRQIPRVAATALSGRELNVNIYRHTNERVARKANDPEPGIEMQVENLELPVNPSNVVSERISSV
Description: Displacement of [3H]mesulergine from 5HT2C receptor in rat brain cortex. The format is tissue-based.

Test [6] has as its target D(3) dopamine receptor (Homo sapiens) (UniProt P35462). The experiment in a line: Agonist activity at dopamine D3 receptor (unknown origin) at 10 uM relative to dopamine.
In test [7] the test system is Mus musculus. Description: Selectivity ratio of ED50 for po dosed mouse assessed as catalepsy to ED50 for po dosed mouse assessed as reversal of MK-801-induced hyperactivity.
The target in test [8] is T2, 5-hydroxytryptamine receptor 1A (Homo sapiens) (UniProt P08908).
T2 sequence (whole entry): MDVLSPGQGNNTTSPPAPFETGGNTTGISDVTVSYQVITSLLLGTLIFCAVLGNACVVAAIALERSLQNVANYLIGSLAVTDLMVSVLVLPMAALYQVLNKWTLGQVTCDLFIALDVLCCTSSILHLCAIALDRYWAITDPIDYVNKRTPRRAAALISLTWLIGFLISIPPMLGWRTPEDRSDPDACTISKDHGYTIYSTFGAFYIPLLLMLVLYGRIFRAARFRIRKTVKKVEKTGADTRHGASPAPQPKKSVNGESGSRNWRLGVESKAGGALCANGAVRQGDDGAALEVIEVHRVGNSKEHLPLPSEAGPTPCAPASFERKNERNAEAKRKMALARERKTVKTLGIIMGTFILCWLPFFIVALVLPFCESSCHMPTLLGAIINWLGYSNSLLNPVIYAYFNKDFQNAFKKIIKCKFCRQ
The experiment in a line: Agonist activity at […] receptor (unknown origin) at 10 uM relative to 5-HT.

Test [9] relates to Mus musculus. Description: Antipsychotic activity in po dosed mouse assessed as reversal of apomorphine-induced climbing activity. The class given is functional.
In test [10] the target is 5-hydroxytryptamine receptor 2A (Homo sapiens) (UniProt P28223). The experiment in a line: Antagonist activity at […] receptor (unknown origin) at 10 uM.
The target is the same in test [11]. The experiment in a line: Agonist activity at […] receptor (unknown origin) at 10 uM relative to 5-HT.
For test [12], the target named is D(2) dopamine receptor (Homo sapiens) (UniProt P14416). The experiment in a line: Agonist activity at dopamine D2 receptor (unknown origin) at 10 uM relative to dopamine.
Test [13] addresses T3, Adrenergic receptor alpha-2 (Rattus norvegicus, UniProt P22086+P19328+P22909).
T3 sequence (P22086 whole entry): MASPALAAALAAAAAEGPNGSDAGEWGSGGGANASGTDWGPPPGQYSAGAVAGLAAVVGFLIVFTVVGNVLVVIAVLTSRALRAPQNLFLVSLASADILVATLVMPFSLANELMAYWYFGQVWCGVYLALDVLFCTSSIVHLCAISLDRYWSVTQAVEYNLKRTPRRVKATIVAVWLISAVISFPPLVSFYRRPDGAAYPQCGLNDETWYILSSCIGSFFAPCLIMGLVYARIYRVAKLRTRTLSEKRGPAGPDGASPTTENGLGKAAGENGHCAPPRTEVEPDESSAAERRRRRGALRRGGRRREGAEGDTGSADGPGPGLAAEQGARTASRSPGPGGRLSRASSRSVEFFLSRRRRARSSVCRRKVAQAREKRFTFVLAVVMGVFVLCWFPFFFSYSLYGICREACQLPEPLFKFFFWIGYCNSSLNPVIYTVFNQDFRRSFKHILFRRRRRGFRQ
T3 sequence (P19328 whole entry): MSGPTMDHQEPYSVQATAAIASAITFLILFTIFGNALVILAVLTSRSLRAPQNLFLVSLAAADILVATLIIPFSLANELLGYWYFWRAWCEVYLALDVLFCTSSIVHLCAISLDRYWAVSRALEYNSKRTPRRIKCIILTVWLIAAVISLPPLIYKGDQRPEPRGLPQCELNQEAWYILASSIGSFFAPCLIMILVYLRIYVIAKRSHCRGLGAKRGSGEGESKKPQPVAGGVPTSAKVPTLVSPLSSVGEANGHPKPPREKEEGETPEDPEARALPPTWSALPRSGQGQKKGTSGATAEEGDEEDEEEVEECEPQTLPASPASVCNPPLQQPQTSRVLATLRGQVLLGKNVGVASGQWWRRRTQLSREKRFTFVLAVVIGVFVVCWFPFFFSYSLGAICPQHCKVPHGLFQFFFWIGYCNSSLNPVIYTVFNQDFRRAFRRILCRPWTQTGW
T3 sequence (P22909 whole entry): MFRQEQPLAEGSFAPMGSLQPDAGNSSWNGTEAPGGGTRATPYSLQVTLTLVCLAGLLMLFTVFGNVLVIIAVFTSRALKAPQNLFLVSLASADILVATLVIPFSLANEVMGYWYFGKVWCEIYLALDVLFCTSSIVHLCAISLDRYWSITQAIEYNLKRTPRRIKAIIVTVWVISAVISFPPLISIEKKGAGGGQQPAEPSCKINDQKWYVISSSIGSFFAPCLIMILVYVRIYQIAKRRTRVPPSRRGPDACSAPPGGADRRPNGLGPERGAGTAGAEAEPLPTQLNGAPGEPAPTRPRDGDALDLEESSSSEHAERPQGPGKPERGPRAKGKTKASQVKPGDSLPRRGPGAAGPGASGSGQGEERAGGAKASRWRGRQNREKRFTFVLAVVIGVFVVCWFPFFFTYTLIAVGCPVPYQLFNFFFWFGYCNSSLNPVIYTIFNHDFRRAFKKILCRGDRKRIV
The experiment in a line: Displacement of [3H]rauwolscine from adrenergic alpha2 receptor in rat brain cortex. The format is tissue-based.

The next test addresses Histamine H1 receptor (Cavia porcellus, UniProt P31389). The experiment in a line: Displacement of [3H]mepyramine from histamine H1 receptor in guinea pig cerebellum.
For another test, the target named is D(2) dopamine receptor (Rattus norvegicus, UniProt P61169). The experiment in a line: Displacement of [3H]spiperone from dopamine D2 receptor in rat striatum.
Sequence of D(2) dopamine receptor (P61169 whole entry): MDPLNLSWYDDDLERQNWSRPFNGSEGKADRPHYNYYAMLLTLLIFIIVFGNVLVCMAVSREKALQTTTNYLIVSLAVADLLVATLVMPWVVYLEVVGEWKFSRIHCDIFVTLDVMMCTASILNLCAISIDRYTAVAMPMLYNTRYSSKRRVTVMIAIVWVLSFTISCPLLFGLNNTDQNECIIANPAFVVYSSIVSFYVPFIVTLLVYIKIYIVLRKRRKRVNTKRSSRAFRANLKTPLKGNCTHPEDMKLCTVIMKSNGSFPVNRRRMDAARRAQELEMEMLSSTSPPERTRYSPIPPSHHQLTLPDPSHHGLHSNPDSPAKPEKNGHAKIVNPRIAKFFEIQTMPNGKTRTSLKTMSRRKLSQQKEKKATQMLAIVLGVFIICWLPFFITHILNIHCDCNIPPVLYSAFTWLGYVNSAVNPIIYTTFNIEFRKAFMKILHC

Sequence of 5-hydroxytryptamine receptor 2A (P14842 whole entry): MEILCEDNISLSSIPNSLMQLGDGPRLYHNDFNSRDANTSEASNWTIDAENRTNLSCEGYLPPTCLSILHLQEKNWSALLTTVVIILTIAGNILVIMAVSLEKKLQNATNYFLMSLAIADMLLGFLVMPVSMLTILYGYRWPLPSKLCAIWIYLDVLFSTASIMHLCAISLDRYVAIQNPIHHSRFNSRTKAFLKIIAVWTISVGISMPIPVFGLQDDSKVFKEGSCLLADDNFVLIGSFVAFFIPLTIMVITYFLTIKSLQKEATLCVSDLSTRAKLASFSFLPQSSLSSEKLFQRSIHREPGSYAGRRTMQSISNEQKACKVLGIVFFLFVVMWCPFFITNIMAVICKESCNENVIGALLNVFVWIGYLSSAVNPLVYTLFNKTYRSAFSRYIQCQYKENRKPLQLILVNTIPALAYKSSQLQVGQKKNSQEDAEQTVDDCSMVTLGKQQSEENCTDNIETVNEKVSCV
Sequence of Voltage-gated inwardly rectifying potassium channel KCNH2 (Q12809 whole entry): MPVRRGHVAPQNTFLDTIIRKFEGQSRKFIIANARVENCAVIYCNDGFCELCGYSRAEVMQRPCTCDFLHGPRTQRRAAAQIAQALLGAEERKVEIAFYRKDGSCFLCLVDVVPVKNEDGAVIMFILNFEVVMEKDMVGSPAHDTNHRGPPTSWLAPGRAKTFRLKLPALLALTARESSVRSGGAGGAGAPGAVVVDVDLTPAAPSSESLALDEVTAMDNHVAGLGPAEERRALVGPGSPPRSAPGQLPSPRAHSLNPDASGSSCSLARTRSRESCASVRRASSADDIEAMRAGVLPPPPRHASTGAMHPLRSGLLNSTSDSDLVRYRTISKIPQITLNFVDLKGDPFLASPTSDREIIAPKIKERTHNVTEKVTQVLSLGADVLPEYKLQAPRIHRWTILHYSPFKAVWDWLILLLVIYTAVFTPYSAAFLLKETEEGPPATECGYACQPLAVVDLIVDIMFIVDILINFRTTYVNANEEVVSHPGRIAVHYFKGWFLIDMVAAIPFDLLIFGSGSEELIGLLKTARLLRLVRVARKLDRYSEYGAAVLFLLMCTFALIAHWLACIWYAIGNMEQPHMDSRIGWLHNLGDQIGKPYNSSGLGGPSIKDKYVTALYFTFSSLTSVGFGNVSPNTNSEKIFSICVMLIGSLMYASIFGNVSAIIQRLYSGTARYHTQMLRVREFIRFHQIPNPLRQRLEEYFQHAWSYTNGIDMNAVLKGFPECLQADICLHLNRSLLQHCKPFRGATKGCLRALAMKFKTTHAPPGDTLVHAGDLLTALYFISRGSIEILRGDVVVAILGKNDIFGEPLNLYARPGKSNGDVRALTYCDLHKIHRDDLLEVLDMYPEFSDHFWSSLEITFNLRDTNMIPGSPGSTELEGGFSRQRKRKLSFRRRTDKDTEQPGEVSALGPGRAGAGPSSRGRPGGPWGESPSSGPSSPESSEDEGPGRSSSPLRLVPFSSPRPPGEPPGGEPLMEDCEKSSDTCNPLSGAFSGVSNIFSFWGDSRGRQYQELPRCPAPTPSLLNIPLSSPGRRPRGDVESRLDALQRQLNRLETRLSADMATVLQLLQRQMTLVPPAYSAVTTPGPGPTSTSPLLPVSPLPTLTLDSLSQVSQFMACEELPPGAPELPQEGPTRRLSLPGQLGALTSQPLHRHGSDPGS
Sequence of Histamine H1 receptor (P31389 whole entry): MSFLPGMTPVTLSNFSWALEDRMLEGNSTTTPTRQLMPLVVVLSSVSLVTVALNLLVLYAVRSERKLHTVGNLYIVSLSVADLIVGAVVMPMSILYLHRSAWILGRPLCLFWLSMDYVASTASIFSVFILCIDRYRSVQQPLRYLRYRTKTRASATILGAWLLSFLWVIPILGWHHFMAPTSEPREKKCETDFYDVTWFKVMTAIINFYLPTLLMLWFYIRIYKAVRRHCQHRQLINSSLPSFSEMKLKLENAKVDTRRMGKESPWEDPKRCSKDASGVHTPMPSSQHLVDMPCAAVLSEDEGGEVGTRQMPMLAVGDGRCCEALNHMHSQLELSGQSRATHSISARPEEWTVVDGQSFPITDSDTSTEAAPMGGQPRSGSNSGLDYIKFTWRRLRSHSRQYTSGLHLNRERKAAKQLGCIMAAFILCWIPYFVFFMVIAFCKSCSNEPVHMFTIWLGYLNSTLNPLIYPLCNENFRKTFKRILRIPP
Sequence of 5-hydroxytryptamine receptor 2A (Homo sapiens) (P28223 whole entry): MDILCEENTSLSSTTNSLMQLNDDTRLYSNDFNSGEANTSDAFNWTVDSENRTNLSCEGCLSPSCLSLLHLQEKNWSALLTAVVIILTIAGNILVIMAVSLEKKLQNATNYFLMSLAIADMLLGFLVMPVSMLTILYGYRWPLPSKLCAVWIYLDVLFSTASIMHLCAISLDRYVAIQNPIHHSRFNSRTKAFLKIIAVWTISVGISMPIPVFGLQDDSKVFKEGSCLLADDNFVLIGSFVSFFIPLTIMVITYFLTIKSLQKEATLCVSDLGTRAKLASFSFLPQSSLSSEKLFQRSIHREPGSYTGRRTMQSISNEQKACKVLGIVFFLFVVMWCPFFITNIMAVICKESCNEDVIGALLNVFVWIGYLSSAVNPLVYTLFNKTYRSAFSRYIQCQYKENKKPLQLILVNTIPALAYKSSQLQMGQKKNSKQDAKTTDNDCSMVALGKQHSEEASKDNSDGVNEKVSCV
Sequence of D(3) dopamine receptor (Homo sapiens) (P35462 whole entry): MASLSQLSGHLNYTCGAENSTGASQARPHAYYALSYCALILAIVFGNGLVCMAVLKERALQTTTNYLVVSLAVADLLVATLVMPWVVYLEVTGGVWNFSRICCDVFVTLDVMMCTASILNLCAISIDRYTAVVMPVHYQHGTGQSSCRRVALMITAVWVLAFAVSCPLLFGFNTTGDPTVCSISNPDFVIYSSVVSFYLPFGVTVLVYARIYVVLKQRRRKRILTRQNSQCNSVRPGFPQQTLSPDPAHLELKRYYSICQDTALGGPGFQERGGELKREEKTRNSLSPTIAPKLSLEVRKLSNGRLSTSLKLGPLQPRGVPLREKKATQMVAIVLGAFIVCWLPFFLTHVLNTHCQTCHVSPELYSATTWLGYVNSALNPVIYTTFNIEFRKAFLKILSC
Sequence of D(2) dopamine receptor (Homo sapiens) (P14416 whole entry): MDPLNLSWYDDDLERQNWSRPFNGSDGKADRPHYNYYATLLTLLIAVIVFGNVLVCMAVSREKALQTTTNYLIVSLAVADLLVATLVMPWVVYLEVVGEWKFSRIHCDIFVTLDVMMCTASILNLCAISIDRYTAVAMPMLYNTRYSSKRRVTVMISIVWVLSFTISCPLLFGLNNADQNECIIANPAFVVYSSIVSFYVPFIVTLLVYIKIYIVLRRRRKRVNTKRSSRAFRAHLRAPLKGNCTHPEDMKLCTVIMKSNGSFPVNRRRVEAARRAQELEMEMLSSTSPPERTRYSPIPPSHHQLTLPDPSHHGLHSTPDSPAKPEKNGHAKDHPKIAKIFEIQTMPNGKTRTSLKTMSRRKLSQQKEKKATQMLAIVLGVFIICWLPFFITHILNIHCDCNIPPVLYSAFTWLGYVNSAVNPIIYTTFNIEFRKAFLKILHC

Broadly, the ED50 is the midpoint of the dose-response relation. Broadly, the Ki is the dissociation constant of the complex between target and ligand, obtained from inhibition or displacement. A high value points to lower affinity. The IC50 is the concentration needed to halve the response being measured. A word on the inhibition: it is the relative decrease from the control value, in per cent. Read a low inhibition as little suppression. As to `O=[N+]([O-])c1ccc(S(=O)(=O)N2CCC(CN3CCC(c4noc5cc(F)ccc45)CC3)CC2)cc1`, the ED50 was determined as 0.71 mg/kg in the test on Mus musculus [1], 0.57 mg/kg in the test with Mus musculus [4] and 0.4 mg/kg with Mus musculus [9]. Further, the Ki is 0.00079 µM in test [2]; 0.998 µM in test [5]; 0.9673 µM in [13]; 2.85 µM on Histamine H1 receptor; 0.0087 µM at D(2) dopamine receptor. Besides, half-maximal inhibition in test [3] (IC50) required 3.81 µM. Besides, the Activity in test [6] amounted to 3.7%; in test [8], 8.2%; in test [11], 6.8%; in test [12], 5.9%. In addition, the “Ratio ED50” value in the test on Mus musculus [7] turned out to be 61.3. In [10], the inhibition was 100%.
As to `O=S(=O)(c1ccc(C(F)(F)F)cc1)N1CCC(CN2CCC(c3noc4cc(F)ccc34)CC2)CC1`, the inhibition constant (Ki) in test [2] came out at 0.0157 µM; in test [5], 0.137 µM; in test [13], 0.5683 µM; at Histamine H1 receptor it was 0.0436 µM; at D(2) dopamine receptor, 0.0326 µM. Also, the IC50 in test [3] came to 1.39 µM.
